Patent US7754228B2, “Cytotoxic T-cell epitopes from Chlamydia” (Novartis Vaccines and Diagnostics, Srl, priority 2002, dated 2010)
Entries after “also recorded” stand apart in the source; their conditions may differ. Where two headings read alike, the source gives them in different places.

Tests used:
HLA A2 = format: binding, human; conditions: for Mean 1 / Mean 2 / binding to HLA A2 (in words): RMA-S/A2 cells; for Mean 1: peptide and only anti-mouse secondary antibody; for Mean 1 / Mean 2: FACS mean; for Mean 2: peptide, anti-A2 Mab BB7.2 and secondary antibody; for binding to HLA A2 (in words): in vitro binding assay
[1] = system: CD8^+ cells from immunised transgenic mice; experiment: IFN-γ/CD8+ ELISpot assay after DNA immunisation of HLA-A2 transgenic mice; format: cell-based; conditions: for Mean IFN-γ^+ve per 10^6 CD8^+ve cells: after subtraction of HepB negative controls; for number of IFN-γ secreting CD8^+ (in words): spleen cells of DNA immunised transgenic mice
Source text: Full-length C.pneumoniae and C.trachomatis genes encoding the polypeptides which contain CTL epitopes were amplified by PCR using the primers in Table 4 and cloned into plasmid expression vector pCMVKASF2-120, from which the gp120 sequence had been previously excised by treatment with NheI and SalI restriction enzymes. The chlamydial sequences were thus downstream of the tPA signal sequence.
The plasmids were used for DNA immunisation of transgenic mice expressing the human HLA-A2 gene which express a chimeric class I molecule composed of the α1 and α2 domains of HLA-A2.1 and the α3 transmembrane and cytoplasmic domains of H-2K^b.
Mice were immunised at days 0, 21 and 35 by intramuscular injection of 50μg endotoxin-free recombinant plasmid DNA. One week after the third immunisation, the animals were sacrificed, spleens were removed and CD8+ cells were purified by means of CD8α(Ly-2) Microbeads and LS Separation Columns following the technical procedures described by Miltenyi Biotec™. These CD8^+ cells were tested by Elispot assay to detect cells which secrete IFN-γ in response to given peptides. The Elispot procedure was as follows: • 1. 96-well nitrocellulose plates are coated with 5 μg/ml anti-mouse IFN-γ in 100 μl carbonate buffer, pH 9.2. Cover plate with lid and incubate overnight (o.n.) at 4° C. • 2. Discard coating antibody. Rinse plates 3 times with PBS (200 μl per rinse). Shake excess liquid from plate and pat bottom of plate with dry absorbent paper. • 3. Add 200 μl blocking solution (PBS-BSA 1%) to each well to saturate remaining binding sites and incubate 2 hours at 37° C. (or o.n. at 4° C.). • 4. Discard blocking solution, wash plate 3 times with PBS (200 μl per rinse). Shake excess liquid from plate and pat bottom of plate with dry absorbent paper. • 5. Add 100 μl complete medium and incubate 10 minutes at room temperature. Discard liquid and pat bottom of plate with dry absorbent paper. • 6. Add cells (5×10^4 CD8^+ from immunised transgenic mice and 2×10^5 irradiated spleen cells from non-immunised transgenic mice) with complete medium supplemented with the tested peptide (5, 10 or 20 μg/ml) and IL-2 (10 units/ml). • 7. Incubate 20-24 hours in a humidified 37° C., 5% CO2 incubator. • 8. Take off medium, add 200 μl per wash of ice-cold distilled water and incubate on ice for 10 minutes. Then wash ten times in wash buffer (PBS-Tween 0.05%), 2001 per wash. Shake excess liquid from plate and pat bottom of plate with dry absorbent paper. • 9. To detect IFN-γ spots, add 1 μg/ml biotinylated anti mouse IFN-γ in 100 μl in Elispot dilution buffer (PBS-BSA 1%) and incubate 2 hours at 37° C. • 10. Wash plate 3 times with wash buffer (PBS-Tween 0.05%), 200 μl per wash and 3 times with PBS without Tween (200 μl). Shake excess liquid from plate and pat bottom of plate with dry absorbent paper. • 11. Add 100 μl 1:2000 dilution of alkaline phosphatase-coupled avidin in PBS-BSA 1% (Sigma). Incubate 1 hour at 37° C. • 12. Wash plate 3 times with wash buffer (PBS-Tween 0.05%), 2001il per wash and 3 times with PBS without Tween (200 μl). Shake excess liquid from plate and pat bottom of plate with dry absorbent paper. • 13. Spots of […] secreting cells are visualised by adding 50 μl of the ready-to-use substrate BCIP/NBT (Sigma) dissolved in water. The reaction is stopped after 45 minutes at 37° C. by several washes with distilled water.
Values are shown after subtraction of HepB negative controls.

Sequence	High - B (HLA A2)	Δ Mean (HLA A2)	Mean 1 (HLA A2; 10 μM peptide)	Mean 2 (HLA A2; 10 μM peptide)	binding to HLA A2 (in words) (HLA A2)	Mean IFN-γ^+ve per 10^6 CD8^+ve cells ([1]; peptide dose 5 μg/ml)	Mean IFN-γ^+ve per 10^6 CD8^+ve cells ([1]; peptide dose 10 μg/ml)	Mean IFN-γ^+ve per 10^6 CD8^+ve cells ([1]; peptide dose 20 μg/ml)	number of IFN-γ secreting CD8^+ (in words) [1]	ΔMean at high concentrations of peptide (in words) (HLA A2; high peptide concentrations, non-homogeneous fluorescent signal, most likely non-specific effects)	Mean 1 (HLA A2; 100 μM peptide)	Mean 2 (HLA A2; 100 μM peptide)
GLTEEIDYV [CH10]	139	385	202	587	bind to HLA A2	226 per 10^6 CD8^+ve cells	233.3 per 10^6 CD8^+ve cells	200 per 10^6 CD8^+ve cells	well above background levels	–	–	–
SITVFRWLV [CH58]	−15	145	155	300	negative results	1046 per 10^6 CD8^+ve cells	980 per 10^6 CD8^+ve cells	986 per 10^6 CD8^+ve cells	well above background levels; also recorded: strongly positive	–	–	–
YLLEEIYTV [CH6]	130	376	198	574	bind to HLA A2	106.8 per 10^6 CD8^+ve cells	486.8 per 10^6 CD8^+ve cells	266.6 per 10^6 CD8^+ve cells	well above background levels	–	–	–
YMDNNLFYV [CH7]	102	348	203	551	bind to HLA A2	366 per 10^6 CD8^+ve cells	400 per 10^6 CD8^+ve cells	433 per 10^6 CD8^+ve cells	well above background levels	Very low ΔMean values	–	–
YVFDRILKV [CH13]	119	365	–	–	bind to HLA A2	466.8 per 10^6 CD8^+ve cells	700 per 10^6 CD8^+ve cells	540 per 10^6 CD8^+ve cells	well above background levels	–	217	582
